Converted amounts (≈) assume the structure as drawn. “And” between values parts separate entries of the source, which are not always exact repeats. Equal entries are not always repeated.
Columns and labels:
[1] = test system: GN48 Klebsiella pneumoniae; experiment: Chequerboard synergy with polymyxin B (FICI); assay type: cell-based
Text: (§1) A chequerboard technique was used to identify possible synergistic or antagonistic interactions between the 4-oxoquinolizines compounds, levofloxacin and polymyxin B. Levofloxacin was included as a control. […] Final dilutions were made in Mueller-Hinton broth, the specific test medium used for MIC determinations according to CLSI guidelines (CLSI. Methods for Dilution Antimicrobial Susceptibility Tests for Bacteria That Grow Aerobically; Approved Standard-Eighth Edition (2009). CLSI Document M07-A8. CLSI, Wayne, Pa. 19087-1898, USA.). The test medium used was a cation-adjusted Mueller-Hinton Broth II (Becton Dickinson UK Ltd., Oxford Science Park, Oxford, UK, OX4 4DQ).
(§2) The compounds 2, 33 and 35, as well as levofloxacin were tested in combination with polymyxin B on the following isolates: GN31 Acinetobacter baumannii—antibiotic susceptible clinical isolate, GN52 Acinetobacter baumannii—levofloxacin resistant clinical isolate, GN56 Acinetobacter baumannii—levofloxacin resistant clinical isolate, GN48 Klebsiella pneumoniae—NCTC 13443—NDM-1-metallo-R-lactamase and GN10 Pseudomonas aeruginosa—ATCC 27853—antibiotic susceptible reference isolate. All isolates are from the collection maintained at Quotient Bioresearch Ltd., Cambridge, UK.
(§3) The MIC values for the compounds and polymyxin B and levofloxacin were determined by broth microdilution following CLSI guidelines, and the MICs of agents in combination were determined as described by Pillai et.al (Pillai S K, Moellering R C Jr, Eliopoulis G M; Antimicrobial Combinations in Antibiotics in Laboratory Medicine 5th Edition (V. Lorian Ed) (2005) p 365-440). Initial MIC results were used to determine the microtiter plate patterns for the chequerboards. A suitable doubling dilution concentration range was selected such that the combination antibiotic range was at least two concentrations above and four concentrations below the MIC for each isolate. A fixed range of 0.008 to 8 mg/L was tested for polymyxin B except in the case of A. baumannii GN31 where a range of 0.004 to 4 mg/L was tested when in combination with the compounds 2, 33 and 35 as well as levofloxacin.
(§4) From the raw data, fractional inhibitory concentration indices (FICI) were determined for the compounds of the invention and levofloxacin together with polymyxin B for each isolate as follows: FICI=FICX+FICY Where,
(§5) FICX=concentration of the combination antibiotic in a particular row÷MIC of the combination drug alone
(§6) FICY=MIC of polymyxin B in combination÷MIC of the polymyxin B alone
(§7) Additionally isobolograms were created to represent the same data visually. Here, the MIC of polymyxin B was plotted against every concentration of the combination antibiotic up to the MIC.

[2] = test system: GN48 Klebsiella pneumoniae; experiment: Pre-chequerboard MIC, broth microdilution (Example 6); assay type: cell-based; details: GN48 / NCTC 13443, NCTC 13443, NDM-1
Text: as §1, §2, §3

[3] = test system: GN56 Acinetobacter baumannii; experiment: as above; assay type: cell-based; details: levofloxacin resistant clinical isolate
Text: as §1, §2, §3

[4] = test system: GN52 Acinetobacter baumannii; experiment: as above; assay type: cell-based; details: levofloxacin resistant clinical isolate
Text: as §1, §2, §3

[5] = test system: GN10 Pseudomonas aeruginosa; experiment: as above; assay type: cell-based; details: ATCC 27853 / GN10, ATCC 27853, antibiotic susceptible
Text: as §1, §2, §3

[6] = test system: GN31 Acinetobacter baumannii; experiment: as above; assay type: cell-based; details: antibiotic susceptible clinical isolate
Text: as §1, §2, §3

[7] = test system: GN56 Acinetobacter baumannii; experiment: Chequerboard synergy with polymyxin B (FICI); assay type: cell-based
Text: as §1, §2, §3, §4, §5, §6, §7

[8] = test system: GN52 Acinetobacter baumannii; experiment: Chequerboard synergy with polymyxin B (FICI); assay type: cell-based
Text: as §1, §2, §3, §4, §5, §6, §7

[9] = test system: GN31 Acinetobacter baumannii; experiment: Chequerboard synergy with polymyxin B (FICI); assay type: cell-based
Text: as §1, §2, §3, §4, §5, §6, §7

S. epidermis 12228 = experiment: MIC, standard panel of Gram-positive and Gram-negative bacteria (CLSI); assay type: cell-based, Staphylococcus epidermis; details: Staphylococcus, 12228, read-out: MIC S. epidermis 12228
S. aureus 25923 = experiment: as above; assay type: cell-based, Staphylococcus aureus; details: Staphylococcus aureus, 25923, read-out: MIC S. aureus 25923
E. faecalis 29212 = experiment: as above; assay type: cell-based, Enterococcus faecalis; details: Enterococcus faecalis, 29212, read-out: MIC E. faecalis 29212
E. faecium 19434 = experiment: as above; assay type: cell-based, Enterococcus faecium; details: Enterococcus faecium, 19434, read-out: MIC E. faecium 19434
S. aureus 101 = experiment: as above; assay type: cell-based, Staphylococcus aureus; details: Staphylococcus aureus, 101, read-out: MIC S. aureus 101
A. baumanii 19606 = experiment: as above; assay type: cell-based; details: Acinetobacter baumannii, 19606, read-out: MIC A. baumanii 19606
P. aeruginosa 27853 = experiment: as above; assay type: cell-based, Pseudomonas aeruginosa; details: Pseudomonas aeruginosa, 27853, read-out: MIC P. aeruginosa 27853
E. cloacae 13047 = experiment: as above; assay type: cell-based, Enterobacter cloacae; details: Enterobacter cloacae, 13047, read-out: MIC E. cloacae 13047
S. aureus 25923 HS = experiment: as above; assay type: cell-based; details: Staphylococcus aureus, read-out: MIC S. aureus 25923 HS
E. coli 25922 = experiment: as above; assay type: cell-based, Escherichia coli; details: Escherichia coli, 25922, read-out: MIC E. coli 25922

With `Cc1c(-c2ccc3[nH]ncc3c2)ccn2c(=O)c(C(=O)O)cc(C3CC3)c12` [Compound 35, 8-(1H-indazol-5-yl)-1-cyclopropyl-9-methyl-4-oxo-quinolizine-3-carboxylic acid] the “Combination drug MIC alone” value [1] was 16 µg/mL, the Synergy ([1]; combination with polymyxin B) was “partial synergy” and the MIC [2] was 16 µg/mL. It also gave an MIC [3] of 8 µg/mL, an MIC [4] of 2 µg/mL and an MIC [5] of 0.25 µg/mL. It also gave an MIC [6] of 0.03 µg/mL.
For Polymyxin B, the “Polymyxin B MIC alone” value [1] was 0.5 µg/mL, the “Polymyxin B MIC alone” value [7] was 0.5 µg/mL and the “Polymyxin B MIC alone” value [8] was 0.5 µg/mL. The “Polymyxin B MIC alone” value [9] was 0.25 µg/mL and 0.5 µg/mL.
For `CN[C@H](CC(C)C)C(=O)N[C@H]1C(=O)N[C@@H](CC(N)=O)C(=O)N[C@H]2C(=O)N[C@H]3C(=O)N[C@H](C(=O)N[C@H](C(=O)O)c4cc(O)cc(O)c4-c4cc3ccc4O)[C@H](O)c3ccc(c(Cl)c3)Oc3cc2cc(c3O[C@@H]2O[C@H](CO)[C@@H](O)[C@H](O)[C@H]2O[C@H]2C[C@](C)(N)[C@H](O)[C@H](C)O2)Oc2ccc(cc2Cl)[C@H]1O` [Vancomycin, reference compound], the MIC (S. epidermis 12228) was 2 µg/mL (≈ 1.38 µM), the MIC (S. aureus 25923) was 2 µg/mL (≈ 1.38 µM) and the MIC (E. faecalis 29212) was 2 µg/mL (≈ 1.38 µM). It also gave an MIC (E. faecium 19434) of 1 µg/mL (≈ 0.69 µM), an MIC (S. aureus 101) of 2 µg/mL (≈ 1.38 µM) and an MIC (A. baumanii 19606) of over 128 µg/mL. The MIC (P. aeruginosa 27853) was over 128 µg/mL, the MIC (E. cloacae 13047) was over 128 µg/mL and the MIC (S. aureus 25923 HS) was 2 µg/mL (≈ 1.38 µM). The MIC (E. coli 25922) was over 128 µg/mL.

Reference: US10155021B2, “Antimicrobial 4-oxoquinolizines” (Emergent Product Development Gaithersburg Inc., priority 2011, dated 2018)
